Data reported in patent US20100280975A1, “SYSTEMS FOR CLINICAL TRIALS” (WisTa Laboratories Ltd., priority 2007, published 2010).
Several values for one entry are separate records, joined by “and”; a condition that tells them apart may be missing. Equal values may be shown once.

What was measured:
[1] = tested on: mild and moderate dementia of the Alzheimer type; experiment: Mild-brought-forward confirmatory analysis of ADAS-cog over 25 weeks; type: in vivo, human; details: for Mild-brought-forward CDR-mild effect size over 25 weeks / Mild-brought-forward CDR-moderate effect size over 25 weeks / Mild-brought-forward confirmatory analysis, overall effect size over 25 weeks: vs placebo/placebo-low; for Mild-brought-forward confirmatory analysis, overall change from baseline over 25 weeks: whole population, mixed-effects model
CDR-moderate subjects = experiment: rember™ study: NPI (Neuropsychiatric Inventory) over 50 weeks; type: in vivo, human; details: vs placebo-low arm
[2] = tested on: mild and moderate dementia of the Alzheimer type; experiment: rember™ study: MMSE over 50 weeks; type: in vivo, human
Source text: Another standardised test is the Mini-Mental State Examination [MMSE] which was proposed as a simple and quickly administered method for grading cognitive function (Folstein M F, Folstein S E & McHugh P R. ‘Mini-mental state’. A practical method for grading the cognitive state of patients for the clinician. Journal of Psychiatric Research 1975 12 189-198.). The MMSE is the most widely used cognitive screening instrument for the detection of cognitive dysfunction due to dementia in geriatric and psychiatric patients (Tombaugh T N & McIntyre N J. The mini-mental state examination: a comprehensive review. Journal of the American Geriatric Society 1992 40 922-935). The MMSE evaluates orientation, memory, attention and language functions.
The mean decline observed over the 50-week study in placebo-treated subjects was 7.8 ADAS-cog units (FIG. 19). […] On the ADAS-cog scale, about 60% of subjects improved or stayed the same at 50 weeks. On the MMSE scale, 62% improved or stayed the same at 50 weeks. The odds of a patient not declining on either scale were about 3.4 times better at the 60 mg dose than on placebo-low. The corresponding effect sizes were −6.8 ADAS-cog units and 3.2 MMSE units over the 50-week trial.

[3] = tested on: mild and moderate dementia of the Alzheimer type; experiment: rember™ Phase 2 study: ADAS-cog change over 24 weeks
[4] = Adverse effects in the rember™ trial; type: in vivo, human
Experimental: Thus subjects in the Least Exposed Dose arm (ie subjects switched to the low (100 mg) dose after 6 months) who continued to decline withdrew from the study largely after 24 weeks. […] However, biased withdrawal was not a factor in CDR-mild subjects in the same low (100 mg) comparator treatment arm. Therefore the primary driver of non-random withdrawal in the rember™ trial was the experience of continuing rapid decline which was most apparent in the CDR-moderate group.

[5] = tested on: mild and moderate dementia of the Alzheimer type; experiment: rember™ study: ADAS-cog change over 50 weeks, linear imputation for fit-survivor bias; type: in vivo, human; details: for Estimated change from baseline, Least Exposed Dose comparator method / Estimated effect size, Least Exposed Dose comparator method: 50 weeks; for Estimated effect size, Least Exposed Dose comparator method: vs placebo-low arm; for Effect size inferred from least-squares analysis at 50 weeks / Effect size inferred from mixed effects analysis at 50 weeks: vs inferred placebo
Source text: A method has been developed by the inventors which has not been described previously which permits unbiased correction for the fit-survivor phenomenon. […] If a patient who was CDR-moderate at baseline discontinued medication at some time after 24 weeks, a straight line is fitted to the graph of available ADAS-cog change scores against visit-date for the available data for each subject. The line was not forced to pass through zero, to allow for placebo effect, and because the first visit is subject to random fluctuations. The use of a straight-line fit per-subject is supported by the large studies of Stern et al., (1994), Doraiswamy et al., (2001) and Winblad, B., Wimo, A., Engedal, K., Soininen, H., Verhey, F., Waldemar, G., Wetterholm, A. L., Haglund, A., Zhang, R., Schindler, R. (2006) 3-year study of donepezil therapy in Alzheimer's disease: effects of early and continuous therapy. […] The same approach can be applied to other outcome measures for which there were assessments scheduled after 24 weeks.
Subjects originally randomized to placebo were switched to the low (100 mg) dose bd after 24 weeks. This is referred to as the “placebo-low” treatment arm.
In this chart, the labelling conventions of “placlow” refers to subjects randomised to placebo and changed to low (100 mg) bd after 24 weeks, “low” refers to low (100 mg) dose tid, “30 mg” refers to 30 mg dose tid and “60 mg” refers to 60 mg dose tid.

[6] = ITT/LOCF, with interaction term, week 24, CDR-mild, 30 mg tid
[7] = ITT/LOCF, with interaction term, week 24, CDR-mild, 60 mg tid
[8] = ITT/LOCF, with interaction term, week 24, CDR-mild, low (100 mg) tid
[9] = ITT/LOCF, with interaction term, week 24, CDR-moderate, 30 mg tid
[10] = ITT/LOCF, with interaction term, week 24, CDR-moderate, 60 mg tid
[11] = ITT/LOCF, with interaction term, week 24, CDR-moderate, low (100 mg) tid
[12] = ITT/LOCF, without interaction term, week 24, 30 mg tid
[13] = ITT/LOCF, without interaction term, week 24, 60 mg tid
[14] = ITT/LOCF, without interaction term, week 24, low (100 mg) tid
[15] = ITT/OC, CDR-moderates, mixed-effects model, low (100 mg) tid
[16] = ITT/OC, with interaction term, week 24, CDR-mild, 30 mg tid
[17] = ITT/OC, with interaction term, week 24, CDR-mild, 60 mg tid
[18] = ITT/OC, with interaction term, week 24, CDR-mild, low (100 mg) tid
[19] = ITT/OC, with interaction term, week 24, CDR-moderate, 30 mg tid
[20] = ITT/OC, with interaction term, week 24, CDR-moderate, 60 mg tid
[21] = ITT/OC, with interaction term, week 24, CDR-moderate, low (100 mg) tid
[22] = ITT/OC, without interaction term, week 24, 30 mg tid
[23] = ITT/OC, without interaction term, week 24, 60 mg tid
[24] = ITT/OC, without interaction term, week 24, low (100 mg) tid

## CN(C)c1ccc2nc3ccc(=[N+](C)C)cc-3sc2c1 [rember™, methylthioninium chloride]
[1]; 30 mg
  Mild-brought-forward CDR-mild change over 25 weeks: 3.07 ADAS-cog units
  Mild-brought-forward CDR-mild effect size over 25 weeks: −1.19 ADAS-cog units
  Mild-brought-forward CDR-moderate effect size over 25 weeks: 4.33 ADAS-cog units
  Mild-brought-forward confirmatory analysis, overall effect size over 25 weeks: −2.39 ADAS-cog units
  Mild-brought-forward confirmatory analysis, overall change from baseline over 25 weeks: 2.26 ADAS-cog units
[1]; 60 mg
  Mild-brought-forward CDR-mild change over 25 weeks: 1.07 ADAS-cog units
  Mild-brought-forward CDR-mild effect size over 25 weeks: −3.19 ADAS-cog units
  Mild-brought-forward CDR-moderate change over 25 weeks: 0.30 ADAS-cog units
  Mild-brought-forward CDR-moderate effect size over 25 weeks: −5.67 ADAS-cog units
  Mild-brought-forward confirmatory analysis, overall effect size over 25 weeks: −3.85 ADAS-cog units
  Mild-brought-forward confirmatory analysis, overall change from baseline over 25 weeks: 0.78 ADAS-cog units
[1]; low (100 mg)
  Mild-brought-forward CDR-mild change over 25 weeks: 3.60 ADAS-cog units
  Mild-brought-forward CDR-mild effect size over 25 weeks: −0.66 ADAS-cog units
  Mild-brought-forward CDR-moderate change over 25 weeks: 4.82 ADAS-cog units
  Mild-brought-forward CDR-moderate effect size over 25 weeks: −0.54 ADAS-cog units
  Mild-brought-forward confirmatory analysis, overall effect size over 25 weeks: −0.84 ADAS-cog units
  Mild-brought-forward confirmatory analysis, overall change from baseline over 25 weeks: 3.81 ADAS-cog units
CDR-moderate subjects
  NPI carer-distress scale, best effect size over 50 weeks: −4.6 units
  NPI patient-disturbance scale, best effect size over 50 weeks: −9.2 units
[2]; 60 mg dose
  initial symptomatic improvement at 15 weeks, MMSE: 0.8 MMSE units
[2]; 60 mg tid
  effect size on MMSE over the 50-week trial: 3.2 MMSE units
  subjects improved or stayed the same on the MMSE scale at 50 weeks: 62%
[3]; 60 mg tid, OC and LOCF analyses, 24 weeks, pooled CDR-mild and CDR-moderate
  effect size in the entire ITT population of mild and moderate AD: −1.0 to −1.2 ADAS-cog units
[3]; ITT/LOCF, with interaction term, 24-week time-point, CDR-mild, 60 mg tid
  Estimate, ADAS-cog change vs placebo, LM (ANCOVA) analysis: −0.20 ADAS-cog units
[3]; ITT/LOCF, with interaction term, 24-week time-point, CDR-mild, low (100 mg) tid
  Estimate, ADAS-cog change vs placebo, LM (ANCOVA) analysis: −0.79 ADAS-cog units
[3]; ITT/LOCF, with interaction term, 24-week time-point, CDR-moderate, 30 mg tid
  Estimate, ADAS-cog change vs placebo, LM (ANCOVA) analysis: −3.00 ADAS-cog units
[3]; ITT/LOCF, with interaction term, 24-week time-point, CDR-moderate, low (100 mg) tid
  Estimate, ADAS-cog change vs placebo, LM (ANCOVA) analysis: −0.40 ADAS-cog units
[3]; [6]
  Estimate, change in ADAS-cog score vs intercept, least squares: 0.46 ADAS-cog units
  Estimate, change in ADAS-cog score vs intercept, mixed effects: 0.46 ADAS-cog units
[3]; [7]
  Estimate, change in ADAS-cog score vs intercept, least squares: −0.73 ADAS-cog units
  Estimate, change in ADAS-cog score vs intercept, mixed effects: −0.73 ADAS-cog units
[3]; [8]
  Estimate, change in ADAS-cog score vs intercept, least squares: −0.18 ADAS-cog units
  Estimate, change in ADAS-cog score vs intercept, mixed effects: −0.18 ADAS-cog units
[3]; [9]
  Estimate, change in ADAS-cog score vs intercept, least squares: −1.05 ADAS-cog units
  Estimate, change in ADAS-cog score vs intercept, mixed effects: −1.05 ADAS-cog units
[3]; [10]
  Estimate, change in ADAS-cog score vs intercept, least squares: −3.70 ADAS-cog units
  Estimate, change in ADAS-cog score vs intercept, mixed effects: −3.70 ADAS-cog units
[3]; [11]
  Estimate, change in ADAS-cog score vs intercept, least squares: 1.06 ADAS-cog units
  Estimate, change in ADAS-cog score vs intercept, mixed effects: 1.06 ADAS-cog units
[3]; ITT/LOCF, without interaction term, 24-week assessment data only, 30 mg tid
  Estimate, ADAS-cog change vs placebo, LM (ANCOVA) analysis: −0.04 ADAS-cog units
[3]; ITT/LOCF, without interaction term, 24-week assessment data only, low (100 mg) tid
  Estimate, ADAS-cog change vs placebo, LM (ANCOVA) analysis: −0.78 ADAS-cog units
[3]; [12]
  Estimate, change in ADAS-cog score vs intercept (placebo), linear least squares: 0.04 ADAS-cog units
  Estimate, change in ADAS-cog score vs intercept (placebo), linear mixed effects: 0.04 ADAS-cog units
[3]; [13]
  Estimate, change in ADAS-cog score vs intercept (placebo), linear least squares: −1.18 ADAS-cog units
  Estimate, change in ADAS-cog score vs intercept (placebo), linear mixed effects: −1.18 ADAS-cog units
[3]; [14]
  Estimate, change in ADAS-cog score vs intercept (placebo), linear least squares: −0.03 ADAS-cog units
  Estimate, change in ADAS-cog score vs intercept (placebo), linear mixed effects: −0.03 ADAS-cog units
[3]; ITT/OC, CDR-moderates, mixed-effects model, 30 mg tid
  ADAS-cog change from baseline at 24 weeks: 1.03 ADAS-cog units
[3]; ITT/OC, CDR-moderates, mixed-effects model, 60 mg tid
  ADAS-cog change from baseline at 24 weeks: −0.36 ADAS-cog units
[3]; [15]
  ADAS-cog change from baseline at 24 weeks: 4.6 ADAS-cog units and 4.63 ADAS-cog units
  ADAS-cog effect size at 24 weeks (vs placebo): −0.42 ADAS-cog units
[3]; [16]
  Estimate, change in ADAS-cog score vs intercept, linear least squares: 0.43 ADAS-cog units
  Estimate, change in ADAS-cog score vs intercept, linear mixed effects: 0.33 ADAS-cog units
[3]; [17]
  Estimate, change in ADAS-cog score vs intercept, linear least squares: −0.66 ADAS-cog units
  Estimate, change in ADAS-cog score vs intercept, linear mixed effects: −0.77 ADAS-cog units
[3]; [18]
  Estimate, change in ADAS-cog score vs intercept, linear least squares: −0.05 ADAS-cog units
  Estimate, change in ADAS-cog score vs intercept, linear mixed effects: −0.21 ADAS-cog units
[3]; [19]
  Estimate, change in ADAS-cog score vs intercept, linear least squares: 1.11 ADAS-cog units
  Estimate, change in ADAS-cog score vs intercept, linear mixed effects: −1.09 ADAS-cog units
[3]; [20]
  Estimate, change in ADAS-cog score vs intercept, linear least squares: −2.74 ADAS-cog units
  Estimate, change in ADAS-cog score vs intercept, linear mixed effects: −3.23 ADAS-cog units
[3]; [21]
  Estimate, change in ADAS-cog score vs intercept, linear least squares: 0.99 ADAS-cog units
  Estimate, change in ADAS-cog score vs intercept, linear mixed effects: 1.13 ADAS-cog units
[3]; [22]
  Estimate, change in ADAS-cog score vs intercept (placebo), linear least squares: 0.00 ADAS-cog units
  Estimate, change in ADAS-cog score vs intercept (placebo), linear mixed effects: −0.07 ADAS-cog units
[3]; [23]
  Estimate, change in ADAS-cog score vs intercept (placebo), linear least squares: −0.95 ADAS-cog units
  Estimate, change in ADAS-cog score vs intercept (placebo), linear mixed effects: −1.13 ADAS-cog units
[3]; [24]
  Estimate, change in ADAS-cog score vs intercept (placebo), linear least squares: 0.08 ADAS-cog units
  Estimate, change in ADAS-cog score vs intercept (placebo), linear mixed effects: −0.04 ADAS-cog units
[3]; severity as interaction term, CDR-moderate, 60 mg dose
  mean effect sizes in moderate subjects over 24 weeks: −2.7 to −3.7 ADAS-cog units
[4]; low (100 mg) bd, second 6-months of the study
  adverse effects: adverse effects, most notably diarrhea
[4]; tid vs. bd dosing regimes
  haematological side effects: showed a clear dose-response profile
[5]; 60 mg dose
  initial symptomatic improvement at 15 weeks, ADAS-cog: 1.6 ADAS-cog units
[5]; 60 mg tid
  subjects improved or stayed the same on the ADAS-cog scale at 50 weeks: about 60%
  Estimated effect size, Least Exposed Dose comparator method: −5.71 ADAS-cog units
  Effect size inferred from least-squares analysis at 50 weeks: −6.50 ADAS-cog units
[5]; 30 mg tid
  Estimated change from baseline, Least Exposed Dose comparator method: 3.95 ADAS-cog units
  Estimated effect size, Least Exposed Dose comparator method: −2.80 ADAS-cog units
  Effect size inferred from least-squares analysis at 50 weeks: −4.37 ADAS-cog units
  Effect size inferred from mixed effects analysis at 50 weeks: −3.87 ADAS-cog units
[5]; low (100 mg) tid
  Estimated change from baseline, Least Exposed Dose comparator method: 4.00 ADAS-cog units
  Estimated effect size, Least Exposed Dose comparator method: −2.76 ADAS-cog units
  Effect size inferred from least-squares analysis at 50 weeks: −3.59 ADAS-cog units
  Effect size inferred from mixed effects analysis at 50 weeks: −4.04 ADAS-cog units
